Test results published in paper PMC11528023, “Transport mechanism and structural pharmacology of human urate transporter URAT1” (Cell Research, 2024).

Target: T1, URAT1 F449A (Homo sapiens, UniProt Q96S37, F449A)
T1 construct: expressed in transfected cells; host or cells: HEK293 cells (ATCC, CRL-3216), transient transfection
T1 sequence (Q96S37 1-553 F449A): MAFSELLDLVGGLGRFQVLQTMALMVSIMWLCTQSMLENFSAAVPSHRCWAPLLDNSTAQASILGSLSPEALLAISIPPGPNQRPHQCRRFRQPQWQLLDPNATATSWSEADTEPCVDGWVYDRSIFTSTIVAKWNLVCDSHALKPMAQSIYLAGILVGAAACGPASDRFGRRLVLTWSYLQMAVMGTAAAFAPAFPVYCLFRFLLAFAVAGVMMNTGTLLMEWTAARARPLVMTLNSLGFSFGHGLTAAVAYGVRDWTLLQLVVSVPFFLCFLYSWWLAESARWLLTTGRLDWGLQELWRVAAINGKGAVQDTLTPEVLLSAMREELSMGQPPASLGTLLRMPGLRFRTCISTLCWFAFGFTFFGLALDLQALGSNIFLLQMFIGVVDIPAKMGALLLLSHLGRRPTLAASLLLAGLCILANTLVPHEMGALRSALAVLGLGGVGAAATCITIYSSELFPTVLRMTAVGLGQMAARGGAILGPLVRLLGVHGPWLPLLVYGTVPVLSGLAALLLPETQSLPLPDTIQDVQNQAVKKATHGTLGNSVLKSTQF
Assay type: cell-based
Settings: dose-response of 14C-urate uptake, Fig. 6c
Text: Fig. 6 Dotinurad inhibition and the mechanism of URAT1 transport. a Structure of dotinurad-bound URAT1. Detailed interactions between dotinurad and URAT1 are shown on the right. b Dotinurad-binding pocket, depicted in a top view looking down from the extracellular side. c Dose-response curves of URAT1 variants with mutations in the dotinurad-binding site, using the same buffer as defined in Fig. 1 legend. Data are shown as mean ± SD; n = 3 biological replicates. d Comparison between the dotinurad-bound and apo structures. e Schematic diagram of URAT1 importing urate. […]
Human embryonic kidney (HEK) 293 cells (ATCC, CRL-3216) were seeded onto poly(D-lysine)-coated 96-well plates at a density of 0.3 × 10^5 cells per well and cultured at 37 °C until reaching approximately 70%–80% confluence. […] The cells were then lysed in 0.1 M NaOH, and the lysed samples were added to scintillation liquid to measure radioactivity using a PerkinElmer Microbeta2 counter.
For dose-response assays, the cells were incubated with urate and increasing concentrations of inhibitors. […] Nonspecific uptake was measured in each plate in non-transfected cells, and this value was subtracted from the total uptake to obtain the URAT1-specific uptake. To compare the uptake signals among URAT1 variants, the mVenus fluorescence intensity of each construct was measured using fluorescence-detection size-exclusion chromatography[49] […]

Q: `O=C(c1cc(Cl)c(O)c(Cl)c1)N1CS(=O)(=O)c2ccccc21` [dotinurad] was tested. Which “Effect of F449A mutation on drug sensitivity” value did it give?
A: The value was “completely eliminating URAT1’s sensitivity”.
